Measurements reported in patent US20240293351A1, “METHODS OF ADMINISTERING SYNTHETIC TRITERPENOIDS” (REATA PHARMACEUTICALS HOLDINGS, LLC, priority 2020, published 2024).

How the values were obtained:
clinical = settings: human, in vivo, po
[1] = BEACON post-hoc review of EAC case packets for heart failure events within first four weeks; assay type: in vivo, human
Protocol: The first scheduled post-baseline assessment in BEACON was at Week 4. Since many of the heart failure events occurred prior to Week 4, the clinical database provides limited information to characterize these patients. Post-hoc review of the EAC case packets for heart failure cases that occurred prior to Week 4 was performed to assess clinical, vitals, laboratory, and imaging data collected at the time of the first heart failure event (Tables 13 and 14).
Baseline central laboratory values from the clinical database were compared to local laboratory values obtained on admission for heart failure that were included in the EAC packets.

[2] = Thorough QT Study in healthy volunteers; assay type: in vivo, human; settings: 6 days
Protocol: Intensive blood pressure monitoring was employed in a separate Thorough QT Study, which was conducted in healthy volunteers.

[3] = Open label dose-ranging study 402-C-0902 in type 2 diabetic patients with stage 3b-4 CKD; assay type: in vivo, human; set-up: ΔSBP, change from baseline / ΔDBP, change from baseline: unit not given beside the values
[4] = BEACON 24-hour ABPM / 24-hr urine collection sub-study; assay type: in vivo, human
From the text: A subset of the BEACON patients consented to additional 24-hour assessments including ambulatory blood pressure monitoring (ABPM) and 24-hour urine collections. An independent Events Adjudication Committee (EAC), blinded to study treatment assignment, evaluated whether renal events, cardiovascular events, and neurological events met the pre-specified definitions of the primary and secondary endpoints. An IDMC, consisting of external clinical experts supported by an independent statistical group, reviewed unblinded safety data throughout the study and made recommendations as appropriate.
A subset of patients consented to additional 24-hr assessments (sub-study) of ambulatory blood pressure monitoring (ABPM) and 24-hr urine collection at selected visits. […] Also of note, reductions in serum magnesium were not associated with renal loss of magnesium.

[5] = Pharmacokinetic study 402-C-1102 in patients with type 2 diabetes and stage 3b/4 CKD (24-h urine); assay type: in vivo, human; settings: 20 mg once daily 56 days
[6] = 2.5 mg once daily 85 days, CKD Stage 3b/4, N = 14
[7] = 2.5 mg once daily 85 days, CKD Stage 3b, N = 10
[8] = 2.5 mg once daily 85 days, CKD Stage 4, N = 4
[9] = 5 mg once daily 85 days, CKD Stage 3b/4, N = 24
[10] = 5 mg once daily 85 days, CKD Stage 3b, N = 19
[11] = 5 mg once daily 85 days, CKD Stage 4, N = 5
[12] = 10 mg once daily 85 days, CKD Stage 3b/4, N = 24
[13] = 10 mg once daily 85 days, CKD Stage 3b, N = 20
[14] = 10 mg once daily 85 days, CKD Stage 4, N = 4
[15] = 15 mg once daily 85 days, CKD Stage 3b/4, N = 48
[16] = 15 mg once daily 85 days, CKD Stage 3b, N = 26
[17] = 15 mg once daily 85 days, CKD Stage 4, N = 22
[18] = 30 mg once daily 85 days, CKD Stage 3b/4, N = 12
[19] = 30 mg once daily 85 days, CKD Stage 3b, N = 3
[20] = 30 mg once daily 85 days, CKD Stage 4, N = 9

SMILES: COC(=O)[C@]12CCC(C)(C)C[C@H]1[C@H]1C(=O)C=C3[C@@]4(C)C=C(C#N)C(=O)C(C)(C)[C@@H]4CC[C@@]3(C)[C@]1(C)CC2 [Bardoxolone methyl, methyl-2-cyano-3,12-dioxooleana-1,9-dien-28-oic acid]
- half-life (clinical): 48 to 60 h
- LVEF at HF hospitalization, mean ([1]; n = 23): 52% ±
- Serum Sodium at HF hospitalization, mean ([1]; n = 30): 139.0 mmol/L
- Serum Sodium Δ (HF vs baseline), mean ([1]; n = 30): -1.0 mmol/L
- Heart Rate at HF hospitalization, mean ([1]; n = 32): 81 bpm
- Heart Rate Δ (HF vs baseline), mean ([1]; n = 32): 14.5 bpm
- SBP at HF hospitalization, mean ([1]; n = 33): 154 mmHg
- SBP Δ (HF vs baseline), mean ([1]; n = 33): 10.5 mmHg
- DBP at HF hospitalization, mean ([1]; n = 34): 75 mmHg
- DBP Δ (HF vs baseline), mean ([1]; n = 34): 7.9 mmHg
- Serum Potassium at HF hospitalization, mean ([1]; n = 34): 4.8 mmol/L
- Serum Potassium Δ (HF vs baseline), mean ([1]; n = 34): 0.1 mmol/L
- Serum Creatinine at HF hospitalization, mean ([1]; n = 38): 2.7 mg/dL
- Serum Creatinine Δ (HF vs baseline), mean ([1]; n = 38): -0.1 mg/dL
- Change in blood pressure ([2]; 20 mg or 80 mg once daily): did not differ from changes observed in placebo-treated patients
- QTcF, placebo-corrected changes (ΔΔQTcF) ([2]; 20 or 80 mg): did not increase QTcF
- ΔDBP, change from baseline [3, 6]: 0.2 ± 1.8
- ΔSBP, change from baseline [3, 6]: 0.1 ± 4.2
- ΔDBP, change from baseline [3, 7]: 1 ± 2
- ΔSBP, change from baseline [3, 7]: 0 ± 4.4
- ΔDBP, change from baseline [3, 8]: −1.5 ± 3.9
- ΔSBP, change from baseline [3, 8]: 0.3 ± 11
- ΔDBP, change from baseline [3, 9]: −1.4 ± 1.5
- ΔSBP, change from baseline [3, 9]: −1.5 ± 2.3
- ΔDBP, change from baseline [3, 10]: −1.3 ± 1.4
- ΔSBP, change from baseline [3, 10]: −2.1 ± 2 ^
- ΔDBP, change from baseline [3, 11]: −1.4 ± 5.6
- ΔSBP, change from baseline [3, 11]: 0.5 ± 9.1
- ΔDBP, change from baseline [3, 12]: 0.3 ± 1.3
- ΔSBP, change from baseline [3, 12]: −2.4 ± 3.1
- ΔDBP, change from baseline [3, 13]: −0.3 ± 1.3
- ΔSBP, change from baseline [3, 13]: −4.2 ± 3.4
- ΔDBP, change from baseline [3, 14]: 3.6 ± 4.5
- ΔSBP, change from baseline [3, 14]: 6.1 ± 6.7
- ΔDBP, change from baseline [3, 15]: −1 ± 1.2
- ΔSBP, change from baseline [3, 15]: 1.1 ± 2.3
- ΔDBP, change from baseline [3, 16]: −1.3 ± 1.5
- ΔSBP, change from baseline [3, 16]: −2.2 ± 3.3
- ΔDBP, change from baseline [3, 17]: −0.6 ± 1.9
- ΔSBP, change from baseline [3, 17]: 5 ± 2.8
- ΔDBP, change from baseline [3, 18]: 3.2 ± 2.2
- ΔSBP, change from baseline [3, 18]: 7.2 ± 6.2
- ΔDBP, change from baseline [3, 19]: −1.8 ± 3.9
- ΔSBP, change from baseline [3, 19]: −0.4 ± 13.8
- ΔDBP, change from baseline [3, 20]: 4.7 ± 2.5
- ΔSBP, change from baseline [3, 20]: 9.7 ± 7.3
- Blood pressure changes ([3]; 2.5 to 30 mg, 85 consecutive days, amorphous dispersion formulation): no dose-related trend in blood pressure changes or change at any individual dose level was noted
- AE, SOC Card: Cardiac failure congestive, patients n (%) ([3]; SDD 2.5 mg QD 85 days, N = 14): 0
- AE, SOC Card: Oedema peripheral, patients n (%) ([3]; SDD 2.5 mg QD 85 days, N = 14): 0
- AE, SOC Genrl: Oedema peripheral, patients n (%) ([3]; SDD 2.5 mg QD 85 days, N = 14): 0
- AE, SOC Metab: Oedema peripheral, patients n (%) ([3]; SDD 2.5 mg QD 85 days, N = 14): 0
- AE, SOC Resp: Dyspnoea exertional, patients n (%) ([3]; SDD 2.5 mg QD 85 days, N = 14): 1 (7)
- AE, SOC Resp: Dyspnoea, patients n (%) ([3]; SDD 2.5 mg QD 85 days, N = 14): 0
- SAE, SOC Card: Cardiac failure congestive, patients n (%) ([3]; SDD 2.5 mg QD 85 days, N = 14): 0
- AE, SOC Card: Cardiac failure congestive, patients n (%) ([3]; SDD 5 mg QD 85 days, N = 25): 0
- AE, SOC Card: Oedema peripheral, patients n (%) ([3]; SDD 5 mg QD 85 days, N = 25): 0
- AE, SOC Genrl: Oedema peripheral, patients n (%) ([3]; SDD 5 mg QD 85 days, N = 25): 3 (12)
- AE, SOC Metab: Oedema peripheral, patients n (%) ([3]; SDD 5 mg QD 85 days, N = 25): 0
- AE, SOC Resp: Dyspnoea exertional, patients n (%) ([3]; SDD 5 mg QD 85 days, N = 25): 0
- AE, SOC Resp: Dyspnoea, patients n (%) ([3]; SDD 5 mg QD 85 days, N = 25): 0
- SAE, SOC Card: Cardiac failure congestive, patients n (%) ([3]; SDD 5 mg QD 85 days, N = 25): 0
- AE, SOC Card: Cardiac failure congestive, patients n (%) ([3]; SDD 10 mg QD 85 days, N = 28): 1 (4)
- AE, SOC Card: Oedema peripheral, patients n (%) ([3]; SDD 10 mg QD 85 days, N = 28): 1 (4)
- AE, SOC Genrl: Oedema peripheral, patients n (%) ([3]; SDD 10 mg QD 85 days, N = 28): 5 (18)
- AE, SOC Metab: Oedema peripheral, patients n (%) ([3]; SDD 10 mg QD 85 days, N = 28): 0
- AE, SOC Resp: Dyspnoea exertional, patients n (%) ([3]; SDD 10 mg QD 85 days, N = 28): 0
- AE, SOC Resp: Dyspnoea, patients n (%) ([3]; SDD 10 mg QD 85 days, N = 28): 0
- SAE, SOC Card: Cardiac failure congestive, patients n (%) ([3]; SDD 10 mg QD 85 days, N = 28): 1 (4)
- AE, SOC Card: Cardiac failure congestive, patients n (%) ([3]; SDD 15 mg QD 85 days, N = 50): 0
- AE, SOC Card: Oedema peripheral, patients n (%) ([3]; SDD 15 mg QD 85 days, N = 50): 1 (2)
- AE, SOC Genrl: Oedema peripheral, patients n (%) ([3]; SDD 15 mg QD 85 days, N = 50): 3 (6)
- AE, SOC Metab: Oedema peripheral, patients n (%) ([3]; SDD 15 mg QD 85 days, N = 50): 0
- AE, SOC Resp: Dyspnoea exertional, patients n (%) ([3]; SDD 15 mg QD 85 days, N = 50): 0
- AE, SOC Resp: Dyspnoea, patients n (%) ([3]; SDD 15 mg QD 85 days, N = 50): 0
- SAE, SOC Card: Cardiac failure congestive, patients n (%) ([3]; SDD 15 mg QD 85 days, N = 50): 0
- AE, SOC Card: Cardiac failure congestive, patients n (%) ([3]; SDD 30 mg QD 85 days, N = 14): 1 (7)
- AE, SOC Card: Oedema peripheral, patients n (%) ([3]; SDD 30 mg QD 85 days, N = 14): 0
- AE, SOC Genrl: Oedema peripheral, patients n (%) ([3]; SDD 30 mg QD 85 days, N = 14): 3 (21)
- AE, SOC Metab: Oedema peripheral, patients n (%) ([3]; SDD 30 mg QD 85 days, N = 14): 1 (7)
- AE, SOC Resp: Dyspnoea exertional, patients n (%) ([3]; SDD 30 mg QD 85 days, N = 14): 0
- AE, SOC Resp: Dyspnoea, patients n (%) ([3]; SDD 30 mg QD 85 days, N = 14): 1 (7)
- SAE, SOC Card: Cardiac failure congestive, patients n (%) ([3]; SDD 30 mg QD 85 days, N = 14): 1 (7)
- Urinary Magnesium, WK4 Δ from baseline, mean ([4]; n = 40): −0.9 mmol/24 h
- Urinary Magnesium, WK4, mean ([4]; n = 43): 6.0 mmol/24 h
- Urinary Potassium, WK4 Δ from baseline, mean ([4]; n = 57): −7 mmol/24 h
- Urinary Sodium, WK4 Δ from baseline, mean ([4]; n = 57): −27 mmol/24 h
- Urinary Potassium, WK4, mean ([4]; n = 61): 52 mmol/24 h
- Urinary Sodium, WK4, mean ([4]; n = 61): 140 mmol/24 h
- 24-hour Urine Volume, WK4 Δ from baseline, mean ([4]; n = 63): -247 mL
- 24-hour Urine Volume, WK4, mean ([4]; n = 64): 1792 mL
- Serum Magnesium, WK4, mean ([4]; n = 77): 1.53 mEq/L
- Serum Magnesium, WK4 Δ from baseline, mean ([4]; n = 77): −0.21 mEq/L
- Serum Potassium, WK4 Δ from baseline, mean ([4]; n = 77): 0.10 mmol/L
- Serum Sodium, WK4, mean ([4]; n = 77): 140.3 mmol/L
- Serum Sodium, WK4 Δ from baseline, mean ([4]; n = 77): 0.2 mmol/L
- Serum Potassium, WK4, mean ([4]; n = 77, 20 mg once daily): 4.8 mmol/L
- 24-h Urinary Sodium, WK 8 Δ from baseline, mean ([5]; CKD Stage 3b, N = 9): −12 mmol/24 h
- 24-h Urine Volume, WK 8 Δ from baseline, mean ([5]; CKD Stage 3b, N = 9): 355 mL
- 24-h Urinary Sodium, WK 8 Δ from baseline, mean ([5]; CKD Stage 4, N = 6): −89 mmol/24 h
- 24-h Urine Volume, WK 8 Δ from baseline, mean ([5]; CKD Stage 4, N = 6): -610 mL
